Test results from patent US20170081338A1, “SUBSTITUTED HETEROARYL COMPOUNDS AND METHODS OF USE” (Sunshine Lake Pharma Co., Ltd., priority 2015, published 2017).

Columns and labels:
[1] = Pharmacokinetics after intravenous and oral administration in rats; assay type: in vivo; conditions: for Clearance (CL) after iv dosing / AUC(0-t) / half-life / Vd: dose 1 mg/kg, iv dosing; for F: oral bioavailability; for AUC(0-t) / half-life / Vd: rat, plasma; for Vd: read-out: Vss
Experimental: The LC/MS/MS system used in the analysis consists of an Agilent 1200 Series vacuum degasser, binary pump, well-plate autosampler, thermostatted column compartment, the Agilent G6430 Triple Quadrupole Mass Spectrometer with an electrosprayionization (ESI) source. Quantitative analysis was carried out using MRM mode. The parameters for MRM transitions are in the Table A.
An Agilent XDB-C18, 2.1×30 mm, 3.5 μM column was used for the analysis. 5 μL of the samples were injected. Analysis condition: The mobile phase was 0.1% formic acid in water (A) and 0.1% formic acid in methanol (B). The flow rate was 0.4 mL/min. And the gradient of Mobile phase was in the Table B.
Alternatively, an Agilent 6330 series LC/MS/MS spectrometer equipped with G1312A binary pumps, a G1367A autosampler and a G1314C UV detector were used in the analysis. An ESI source was used on the LC/MS/MS spectrometer. The analysis was done in positive ion mode as appropriate and the MRM transition for each analyte was optimized using standard solution. A Capcell MP-C18 100×4.6 mm I.D., […] column (Phenomenex, Torrance, Calif., USA) was used during the analysis. The mobile phase was 5 mM ammonia acetate, 0.1% MeOH in water (A): 5 mM ammonia acetate, 0.1% MeOH in acetonitrile (B) (70/30, v/v). The flow rate was 0.6 mL/min. Column was maintained at ambient temperature. 20 μL of the samples were injected.
The compounds disclosed herein are assessed in pharmacokinetic studies in mice, rats, dogs or monkeys. The compounds are administered as a water solution, 2% HPMC+1% TWEEN®80 in water solution, 5% DMSO+5% solutol in saline, 4% MC suspension or capsule. For the intravenous administration, the animals are generally given at 0.5, 1 or 2 mg/kg dose. For the oral (p.o.) dosing, mice and rats are generally given 0.5, 1, 5 or 10 mg/kg dose, and dogs and monkeys are generally given 10 mg/kg dose. The blood samples (0.3 mL) are drawn at 0.25, 0.5, 1.0, 2.0, 3.0, 4.0, 6.0, 8.0, 12 and 24 h time points or 0.083, 0.25, 0.5, 1.0, 2.0, 4.0, 6.0, 8.0 and 24 h time points and centrifuged at 3,000 or 4000 rpm for 2 to 10 min. The plasma solutions are collected, and stored at −20° C. or −70° C. until analyzed by LC/MS/MS as described above.

Aurora-A (h) = target: T1, Aurora-A (h) (Homo sapiens, UniProt O14965); assay: Aurora-A (h) kinase assay; assay type: biochemical
T1 construct: purchased Millipore UK Ltd (contract assay service)
T1 sequence (O14965 1-403): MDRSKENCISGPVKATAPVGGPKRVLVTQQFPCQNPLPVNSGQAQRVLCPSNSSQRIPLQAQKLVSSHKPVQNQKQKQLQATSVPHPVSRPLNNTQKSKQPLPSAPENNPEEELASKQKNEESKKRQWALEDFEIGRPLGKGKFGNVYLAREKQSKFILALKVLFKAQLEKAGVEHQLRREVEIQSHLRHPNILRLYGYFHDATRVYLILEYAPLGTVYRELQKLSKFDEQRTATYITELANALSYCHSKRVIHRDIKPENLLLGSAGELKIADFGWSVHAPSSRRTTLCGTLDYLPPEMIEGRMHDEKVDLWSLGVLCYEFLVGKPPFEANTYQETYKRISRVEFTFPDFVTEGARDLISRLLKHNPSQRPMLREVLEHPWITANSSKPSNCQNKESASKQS
Experimental: The above assay procedure can be used to determine the IC50 for inhibition and/or the inhibition constant, Ki. The IC50 is defined as the concentration of compound required to reduce the enzyme activity by 50% under the condition of the assay. The IC50 value is estimated by preparing a 10 point curve using a 1/2 log dilution series (for example, a typical curve may be prepared using the following compound concentrations: 3 μM, 1 μM, 0.3 μM, 0.1 μM, 0.03 μM, 0.01 μM, 0.003 μM, 0.001 μM, 0.0003 μM and 0 μM).
Aurora-A (h) is incubated with 8 mM MOPS pH 7.0, 0.2 mM EDTA, 200 μM LRRASLG (Kemptide), 10 mM MgAcetate and [γ-^33P-ATP] (specific activity approx. 500 cpm/pmol, concentration as required). The reaction is initiated by the addition of the MgATP mix. After incubation for 40 minutes at room temperature, the reaction is stopped by the addition of 3% phosphoric acid solution. 10 μL of the reaction is then spotted onto a P30 filtermat and washed three times for 5 minutes in 75 mM phosphoric acid and once in methanol prior to drying and scintillation counting.
The kinase assays described herein were performed at Millipore UK Ltd, Dundee Technology Park, Dundee DD2 1SW, UK.

[2] = Compound stability in rat liver microsomes; assay type: in vitro ADME; conditions: pH 7.4; for half-life at 5 μM: rat liver microsomes 0.5 mg protein/mL, compound 5 μM, NADPH, 37° C., read-out: Rat T1/2; for CLint scaled at 5 μM: rat liver microsomes, in vivo CLint extrapolated
Experimental: (§1) Human or rat liver microsomes incubations were conducted in duplicate in polypropylene tubes. The typical incubation mixtures consisted of human or rat liver microsomes (0.5 mg protein/mL), compounds of interest (5 μM) and NADPH (1.0 mM) in a total volume of 200 μL potassium phosphate buffer (PBS, 100 mM, pH 7.4). Compounds were dissolved in DMSO and diluted with PBS such that the final concentration of DMSO was 0.05%. The enzymatic reactions were commenced with the addition of protein after a 3-min preincubation and incubated in a water bath open to the air at 37° C. Reactions were terminated at various time points (0, 5, 10, 15, 30, 60 min) by adding equal volume of ice-cold acetonitrile. The samples were stored at −80° C. until LC/MS/MS assays.
(§2) The concentrations of compounds in the incubation mixtures of human or rat liver microsomes were determined by a LC/MS/MS method. The ranges of the linearity in the concentration range were determined for each tested compounds.
(§3) A parallel incubation was performed using denatured microsomes as the negative control, and reactions were terminated at various time points (0, 15, 60 min) after incubation at 37° C.
(§4) Dextromethorphan (70 μM) was selected as the positive control, and reactions were terminated at various time points (0, 5, 10, 15, 30, 60 min) after incubation at 37° C. Both positive and negative control samples were included in each assay to ensure the integrity of the microsomal incubation system.
(§5) The concentrations of compounds in human or rat liver microsome incubations were plotted as a percentage of the relevant zero time point control for each reaction. The in vivo CLint were extrapolated (ref.: Naritomi, Y.; Terashita, S.; Kimura, S.; Suzuki, A.; Kagayama, A.; and Sugiyama, Y.; Prediction of human hepatic clearance from in vivo animal experiments and in vitro metabolic studies with liver microsomes from animals and humans. Drug Metab. Dispos., 2001, 29: 1316-1324).

[3] = Compound stability in human liver microsomes; assay type: in vitro ADME; conditions: pH 7.4; for half-life at 5 μM: human liver microsomes 0.5 mg protein/mL, compound 5 μM, NADPH, 37° C., read-out: Human T1/2; for CLint scaled at 5 μM: human liver microsomes, in vivo CLint extrapolated
Experimental: as §1, §2, §3, §4, §5

SMILES	Clearance (CL) after iv dosing [1]	F [1]	AUC(0-t) [1]	half-life [1]	Vd [1]	IC50 (Aurora-A (h))	half-life at 5 μM [2]	CLint scaled at 5 μM [2]	half-life at 5 μM [3]	CLint scaled at 5 μM [3]
CC(C)S(=O)(=O)N[C@H]1COC2C1OC[C@H]2Nc1nc(Nc2cnn(C)c2)ncc1Cl (stereo partly drawn) [Ex. 15, N-((3S,6R)-6-((5-chloro-2-((1-methyl-1H-pyrazol-4-yl)amino)pyrimidin-4-yl)amino)hexahydrofuro[3,2-b]furan-3-yl)propane-2-sulfonamide]	1.39 L/h/kg	86.5%	0.726 µg·h/mL	47.4 min	1.11 L/kg	0.034 µM	91.6 min	1.63 L/h/kg	143 min	0.727 L/h/kg
CC(C)CS(=O)(=O)N[C@@H]1COC2C1OC[C@@H]2Nc1nc(Nc2cnn(C)c2)ncc1Cl (stereo partly drawn) [Ex. 13, N-((3R,6S)-6-((5-chloro-2-((1-methyl-1H-pyrazol-4-yl)amino)pyrimidin-4-yl)amino)hexahydrofuro[3,2-b]furan-3-yl)-2-methylpropane-1-sulfonamide]	3.42 L/h/kg	74.5%	0.291 µg·h/mL	58.2 min	2.56 L/kg	1.03 µM	41.4 min	3.6 L/h/kg	32.9 min	3.17 L/h/kg
Cn1cc(Nc2ncc(Cl)c(N[C@@H]3COC4C3OC[C@@H]4NS(=O)(=O)C3CCOC3)n2)cn1 (stereo partly drawn) [Ex. 20, N-((3S,6R)-6-((5-chloro-2-((1-methyl-1H-pyrazol-4-yl)amino)pyrimidin-4-yl)amino)hexahydrofuro[3,2-b]furan-3-yl)tetrahydrofuran-3-sulfonamide]	3.62 L/h/kg	42.5%	0.284 µg·h/mL	27.6 min	1.41 L/kg	0.041 µM	116 min	1.29 L/h/kg	75.5 min	1.38 L/h/kg
Cn1cc(Nc2ncc(Cl)c(N[C@H]3COC4C3OC[C@H]4NS(=O)(=O)CC(F)(F)F)n2)cn1 (stereo partly drawn) [Ex. 5, N-((3R,6S)-6-((5-chloro-2-((1-methyl-1H-pyrazol-4-yl)amino)pyrimidin-4-yl)amino)hexahydrofuro[3,2-b]furan-3-yl)-2,2,2-trifluoroethanesulfonamide]	2.33 L/h/kg	44.0%	0.42 µg·h/mL	108 min	2.01 L/kg	1 µM	82.7 min	1.8 L/h/kg	243 min	0.43 L/h/kg
Cn1cc(Nc2ncc(Cl)c(N[C@@H]3COC4C3OC[C@@H]4NS(=O)(=O)C3CCCC3)n2)cn1 (stereo partly drawn) [Ex. 14, N-((3S,6R)-6-((5-chloro-2-((1-methyl-1H-pyrazol-4-yl)amino)pyrimidin-4-yl)amino)hexahydrofuro[3,2-b]furan-3-yl)cyclopentanesulfonamide]	2.00 L/h/kg	91.9%	0.497 µg·h/mL	54 min	1.08 L/kg	0.051 µM	47.7 min	3.12 L/h/kg	24.7 min	4.22 L/h/kg
Cn1cc(Nc2ncc(Cl)c(N[C@@H]3COC4C3OC[C@@H]4NS(=O)(=O)CC3CCOC3)n2)cn1 (stereo partly drawn) [Ex. 16, N-((3S,6R)-6-((5-chloro-2-((1-methyl-1H-pyrazol-4-yl)amino)pyrimidin-4-yl)amino)hexahydrofuro[3,2-b]furan-3-yl)-1-(tetrahydrofuran-3-yl)methanesulfonamide]						0.017 µM	106 min	1.4 L/h/kg	39.1 min	2.67 L/h/kg
Cn1cc(Nc2ncc(Cl)c(N[C@@H]3COC4C3OC[C@@H]4NS(=O)(=O)C3CC3)n2)cn1 (stereo partly drawn) [Ex. 4, N-((3S,6R)-6-((5-chloro-2-((1-methyl-1H-pyrazol-4-yl)amino)pyrimidin-4-yl)amino)hexahydrofuro[3,2-b]furan-3-yl)cyclopropanesulfonamide]	1.42 L/h/kg	51.7%	0.712 µg·h/mL	21 min	0.69 L/kg	0.053 µM	103 min	1.44 L/h/kg	563 min	0.185 L/h/kg
Cn1cc(Nc2ncc(Cl)c(N[C@@H]3COC4C3OC[C@@H]4Nc3ccc(C#N)nn3)n2)cn1 (stereo partly drawn) [Ex. 3, 6-(((3S,6R)-6-((5-chloro-2-((1-methyl-1H-pyrazol-4-yl)amino)pyrimidin-4-yl)amino)hexahydrofuro[3,2-b]furan-3-yl)amino)pyridazine-3-carbonitrile]						0.045 µM	22 min	6.79 L/h/kg	142 min	0.738 L/h/kg
Cn1cc(Nc2ncc(Cl)c(N[C@H]3COC4C3OC[C@H]4NS(=O)(=O)N3CCCC3)n2)cn1 (stereo partly drawn) [Ex. 6, N-((3R,6S)-6-((5-chloro-2-((1-methyl-1H-pyrazol-4-yl)amino)pyrimidin-4-yl)amino)hexahydrofuro[3,2-b]furan-3-yl)pyrrolidine-1-sulfonamide]	3.23 L/h/kg	44.3%	0.309 µg·h/mL	34.8 min	1.54 L/kg	0.984 µM	37.7 min	3.95 L/h/kg	37.3 min	2.79 L/h/kg
